ChEMBL document CHEMBL1201862, “PubChem BioAssay data set” (2004)
Activity calls are given as the source filed them.

Experiments:
[1] = biological target: T1, Tyrosine-protein phosphatase non-receptor type 22 (Homo sapiens, UniProt Q9Y2R2); assay: SAR LYP1 Fluorescent Assay using OMFP substrate for In Vitro dose response studies - Set 2. [Related pubchem assays (depositor defined):AID1779, AID1784, AID2140, AID449726, AID488869]; type: functional
T1 sequence (Q9Y2R2 whole entry): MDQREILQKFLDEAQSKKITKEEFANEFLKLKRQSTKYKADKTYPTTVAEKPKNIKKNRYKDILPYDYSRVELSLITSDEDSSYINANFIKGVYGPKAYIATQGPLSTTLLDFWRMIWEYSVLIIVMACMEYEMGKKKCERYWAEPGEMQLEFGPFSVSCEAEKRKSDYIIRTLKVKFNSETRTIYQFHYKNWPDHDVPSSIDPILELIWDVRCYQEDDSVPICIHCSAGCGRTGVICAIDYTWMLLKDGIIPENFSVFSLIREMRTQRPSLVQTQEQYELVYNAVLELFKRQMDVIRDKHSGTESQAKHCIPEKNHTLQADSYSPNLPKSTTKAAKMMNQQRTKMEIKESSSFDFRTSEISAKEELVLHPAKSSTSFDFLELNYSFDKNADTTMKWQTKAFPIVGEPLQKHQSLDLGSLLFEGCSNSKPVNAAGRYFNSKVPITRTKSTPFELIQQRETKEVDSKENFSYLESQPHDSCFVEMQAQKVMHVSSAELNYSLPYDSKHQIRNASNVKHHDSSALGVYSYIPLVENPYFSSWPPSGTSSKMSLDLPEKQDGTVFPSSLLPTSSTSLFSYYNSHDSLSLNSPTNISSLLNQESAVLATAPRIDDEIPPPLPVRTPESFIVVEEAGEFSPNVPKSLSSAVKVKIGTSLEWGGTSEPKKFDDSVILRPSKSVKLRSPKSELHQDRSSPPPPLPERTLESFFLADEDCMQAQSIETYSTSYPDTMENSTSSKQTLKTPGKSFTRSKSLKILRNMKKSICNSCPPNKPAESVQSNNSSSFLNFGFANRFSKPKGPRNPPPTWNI

[2] = biological target: T1, Tyrosine-protein phosphatase non-receptor type 22; assay: SAR LYP1 Fluorescent Assay using pCAP substrate for In Vitro dose response studies - Set 2. [Related pubchem assays (depositor defined):AID1779, AID1784, AID2135, AID449727]; type: functional
[3] = biological target: T1, Tyrosine-protein phosphatase non-receptor type 22; assay: LYP (PTPN22) phosphatase inhibitor potency, SAR follow-up, biochemical, pCAP fluorogenic substrate, fluorescence, set 3 (AID 449727); type: functional
[4] = biological target: T2, Tyrosine-protein phosphatase non-receptor type 7 (Homo sapiens, UniProt P35236); assay: HePTP (PTPN7) phosphatase inhibitor potency, SAR follow-up, biochemical, set 2 (AID 449736); type: functional
T2 sequence (P35236 whole entry): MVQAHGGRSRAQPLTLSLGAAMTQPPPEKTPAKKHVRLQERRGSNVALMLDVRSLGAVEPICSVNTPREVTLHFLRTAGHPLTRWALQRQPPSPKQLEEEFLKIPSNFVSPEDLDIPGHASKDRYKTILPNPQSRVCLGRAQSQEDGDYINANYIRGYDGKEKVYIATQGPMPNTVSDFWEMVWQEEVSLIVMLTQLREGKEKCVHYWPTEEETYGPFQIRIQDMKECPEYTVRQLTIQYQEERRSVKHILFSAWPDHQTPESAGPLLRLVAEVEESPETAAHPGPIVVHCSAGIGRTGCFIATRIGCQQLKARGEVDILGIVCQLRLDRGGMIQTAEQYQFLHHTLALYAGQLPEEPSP

[5] = biological target: T3, Tyrosine-protein phosphatase non-receptor type 12 (Homo sapiens, UniProt Q05209); assay: SAR Selectivity Analysis of small molecule inhibitors of PEST using pCAP in a fluorescence assay. [Related pubchem assays (depositor defined):AID1779, AID1784, AID2135]; type: functional
T3 sequence (Q05209 whole entry): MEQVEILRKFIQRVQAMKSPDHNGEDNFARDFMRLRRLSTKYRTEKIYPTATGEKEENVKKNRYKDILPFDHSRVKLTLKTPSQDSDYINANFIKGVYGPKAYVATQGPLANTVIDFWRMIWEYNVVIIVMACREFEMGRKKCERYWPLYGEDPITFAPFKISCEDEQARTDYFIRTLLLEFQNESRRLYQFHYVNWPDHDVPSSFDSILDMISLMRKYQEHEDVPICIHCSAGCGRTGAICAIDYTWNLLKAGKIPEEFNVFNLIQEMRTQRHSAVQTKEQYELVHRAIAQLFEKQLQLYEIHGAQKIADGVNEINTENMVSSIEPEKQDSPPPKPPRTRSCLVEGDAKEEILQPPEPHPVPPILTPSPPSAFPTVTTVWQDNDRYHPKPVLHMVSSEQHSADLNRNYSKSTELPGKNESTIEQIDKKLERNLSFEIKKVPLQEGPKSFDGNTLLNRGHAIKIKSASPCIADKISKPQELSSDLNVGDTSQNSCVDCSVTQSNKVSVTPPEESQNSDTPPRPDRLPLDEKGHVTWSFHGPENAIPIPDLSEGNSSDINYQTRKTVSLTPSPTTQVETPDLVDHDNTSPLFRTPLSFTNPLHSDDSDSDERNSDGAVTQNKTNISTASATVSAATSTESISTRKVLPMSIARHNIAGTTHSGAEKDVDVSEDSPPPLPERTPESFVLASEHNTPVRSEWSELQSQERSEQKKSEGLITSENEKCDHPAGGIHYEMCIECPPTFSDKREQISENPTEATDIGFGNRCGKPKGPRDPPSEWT

[6] = biological target: T1, Tyrosine-protein phosphatase non-receptor type 22; assay: SAR LYP1 Fluorescent Assay using OMFP substrate for In Vitro dose response studies - Set 3. [Related pubchem assays (depositor defined):AID1779, AID1784, AID2140, AID2686]; type: functional
[7] = test system: HeLa; assay: HeLa cell cytotoxicity, dose response, cytotoxicity control for MITF activator project, CellTiter-Glo luminescence, cherry-pick samples (AID 540259); type: functional, cell-based; conditions: Homo sapiens
[8] = biological target: Mu-type opioid receptor (Homo sapiens, UniProt P35372); assay: Counterscreen for agonists of heterodimerization of the mu 1 (OPRM1) and delta 1 (OPRD1) opioid receptors: Luminescence-based cell-based high throughput dose response assay to identify agonists of OPRM1 homodimerization.; type: functional;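 note: U2OS cells expressing OPRM1 and beta-arrestin as split beta-galactosidase partners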
Chain of Mu-type opioid receptor (P35372 whole entry): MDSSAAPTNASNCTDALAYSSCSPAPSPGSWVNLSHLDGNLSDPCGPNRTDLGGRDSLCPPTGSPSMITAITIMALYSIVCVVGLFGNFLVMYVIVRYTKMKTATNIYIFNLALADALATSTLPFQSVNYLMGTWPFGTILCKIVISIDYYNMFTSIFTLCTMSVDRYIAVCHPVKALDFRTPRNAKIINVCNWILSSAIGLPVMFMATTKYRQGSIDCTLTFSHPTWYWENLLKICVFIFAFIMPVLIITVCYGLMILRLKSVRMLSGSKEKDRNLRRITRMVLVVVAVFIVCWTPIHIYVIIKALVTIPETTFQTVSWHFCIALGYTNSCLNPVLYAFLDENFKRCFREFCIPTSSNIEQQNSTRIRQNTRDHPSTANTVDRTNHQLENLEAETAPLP

[9] = biological target: Delta-type opioid receptor (Homo sapiens, UniProt P41143); assay: Counterscreen for agonists of heterodimerization of the mu 1 (OPRM1) and delta 1 (OPRD1) opioid receptors: Luminescence-based cell-based high throughput dose response assay to identify agonists of OPRD1 homodimerization. [Related pubchem assays (depositor defined):AID504326, AID504355, AID504692, AID504904, AID504905]; type: functional
Chain of Delta-type opioid receptor (P41143 whole entry): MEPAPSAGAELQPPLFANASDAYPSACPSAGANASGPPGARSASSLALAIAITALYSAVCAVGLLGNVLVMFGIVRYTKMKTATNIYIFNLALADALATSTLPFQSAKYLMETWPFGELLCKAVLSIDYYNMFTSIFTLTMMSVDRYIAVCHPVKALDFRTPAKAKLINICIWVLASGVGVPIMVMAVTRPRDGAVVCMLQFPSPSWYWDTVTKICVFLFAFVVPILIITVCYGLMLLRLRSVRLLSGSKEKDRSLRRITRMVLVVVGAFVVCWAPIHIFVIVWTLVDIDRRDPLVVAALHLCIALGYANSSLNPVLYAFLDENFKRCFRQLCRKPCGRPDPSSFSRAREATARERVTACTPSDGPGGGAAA

[10] = biological target: 5-hydroxytryptamine receptor 5A (Homo sapiens, UniProt P47898); assay: Counterscreen for agonists of OPRM1-OPRD1 heterodimerization: luminescence-based cell-based high throughput dose response assay to identify agonists of 5-hydroxytryptamine (serotonin) 5A receptor (HTR5A). [Related pubchem assays (depositor defined):AID504326, AID504355, AID504692, AID504904, AID504905]; type: functional
Chain of 5-hydroxytryptamine receptor 5A (P47898 whole entry): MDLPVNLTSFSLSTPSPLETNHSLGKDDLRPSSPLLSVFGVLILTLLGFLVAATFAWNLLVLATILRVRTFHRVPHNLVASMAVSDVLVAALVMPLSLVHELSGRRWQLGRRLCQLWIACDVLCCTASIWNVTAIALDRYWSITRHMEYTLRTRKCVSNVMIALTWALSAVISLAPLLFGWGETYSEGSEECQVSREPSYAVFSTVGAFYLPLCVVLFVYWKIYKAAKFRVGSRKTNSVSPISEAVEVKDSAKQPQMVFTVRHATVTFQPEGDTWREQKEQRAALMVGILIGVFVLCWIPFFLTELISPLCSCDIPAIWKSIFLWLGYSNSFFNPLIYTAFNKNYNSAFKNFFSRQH

[11] = biological target: T4, CAAX prenyl protease 2 (Homo sapiens, UniProt Q9Y256); assay: human Rce1 protease inhibitors, dose response, biochemical, yeast membranes, quenched-peptide fluorescence, cherry-pick (AID 588849)
T4 sequence (Q9Y256 whole entry): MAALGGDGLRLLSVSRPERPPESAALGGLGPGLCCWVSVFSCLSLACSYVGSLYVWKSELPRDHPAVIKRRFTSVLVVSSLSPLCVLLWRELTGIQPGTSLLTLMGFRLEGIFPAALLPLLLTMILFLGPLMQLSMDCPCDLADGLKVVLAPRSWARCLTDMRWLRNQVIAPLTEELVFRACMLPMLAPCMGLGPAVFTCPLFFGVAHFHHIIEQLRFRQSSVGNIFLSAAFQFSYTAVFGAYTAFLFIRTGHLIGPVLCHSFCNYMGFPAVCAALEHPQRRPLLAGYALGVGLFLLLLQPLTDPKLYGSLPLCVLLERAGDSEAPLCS

[12] = M. tuberculosis H37Rv growth inhibitors, H37Rv strain (AID 1626); type: functional
[13] = biological target: T5, CAAX prenyl protease 2 (Saccharomyces cerevisiae S288c, UniProt Q03530); type: biochemical
T5 sequence (Q03530 whole entry): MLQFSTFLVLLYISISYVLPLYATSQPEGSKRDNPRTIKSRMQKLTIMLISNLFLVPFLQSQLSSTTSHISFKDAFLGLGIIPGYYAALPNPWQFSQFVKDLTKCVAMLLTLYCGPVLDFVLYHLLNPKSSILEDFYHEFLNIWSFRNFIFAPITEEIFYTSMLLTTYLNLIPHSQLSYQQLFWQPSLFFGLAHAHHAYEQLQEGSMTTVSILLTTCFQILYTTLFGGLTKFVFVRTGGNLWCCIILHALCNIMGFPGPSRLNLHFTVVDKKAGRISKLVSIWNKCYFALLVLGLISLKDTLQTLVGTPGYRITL

[14] = test system: Escherichia coli; assay: microbe, parasite or virus in culture
[15] = biological target: T6, Short transient receptor potential channel 4 (Mus musculus, UniProt Q9QUQ5); assay: mouse TRPC4 channel activators, dose response, cell-based, HEK293 TRPC4/mu-opioid, Fluo-4 calcium (AID 434937); type: functional
T6 sequence (Q9QUQ5 whole entry): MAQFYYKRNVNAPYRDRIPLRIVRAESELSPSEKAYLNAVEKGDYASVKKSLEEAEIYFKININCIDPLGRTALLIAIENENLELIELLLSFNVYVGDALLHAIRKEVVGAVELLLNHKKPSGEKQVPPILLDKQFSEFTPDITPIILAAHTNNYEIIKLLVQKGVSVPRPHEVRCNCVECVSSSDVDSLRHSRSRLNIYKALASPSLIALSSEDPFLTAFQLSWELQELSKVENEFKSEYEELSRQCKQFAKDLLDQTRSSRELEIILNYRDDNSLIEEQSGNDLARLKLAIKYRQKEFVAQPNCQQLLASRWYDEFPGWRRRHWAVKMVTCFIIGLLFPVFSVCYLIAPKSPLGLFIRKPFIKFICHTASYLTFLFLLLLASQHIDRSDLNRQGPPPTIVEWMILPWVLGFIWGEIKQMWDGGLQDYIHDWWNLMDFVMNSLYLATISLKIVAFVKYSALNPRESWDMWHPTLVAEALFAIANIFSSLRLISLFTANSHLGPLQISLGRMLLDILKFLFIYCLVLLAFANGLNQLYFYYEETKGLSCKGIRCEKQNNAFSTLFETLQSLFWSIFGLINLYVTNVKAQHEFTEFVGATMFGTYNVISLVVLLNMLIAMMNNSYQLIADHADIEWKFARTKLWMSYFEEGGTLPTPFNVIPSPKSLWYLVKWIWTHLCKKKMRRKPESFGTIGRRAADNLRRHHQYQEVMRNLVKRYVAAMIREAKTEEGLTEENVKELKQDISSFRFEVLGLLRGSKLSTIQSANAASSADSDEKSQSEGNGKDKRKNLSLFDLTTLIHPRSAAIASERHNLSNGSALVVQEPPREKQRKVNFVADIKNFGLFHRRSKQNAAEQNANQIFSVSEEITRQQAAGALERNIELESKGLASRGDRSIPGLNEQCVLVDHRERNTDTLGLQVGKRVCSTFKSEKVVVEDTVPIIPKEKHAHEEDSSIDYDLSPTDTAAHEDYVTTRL

Compound: COc1cc(/C=C2/SC(=S)N(c3cccc(C(=O)O)c3)C2=O)ccc1OCc1ccc(Cl)cc1
- IC50 [1]: 4.04 µM (active)
- IC50 [2]: 3.68 µM (active)
- IC50 [3]: 3.49 µM (active)
- IC50 [4]: 0.394 µM (active)
- IC50 [5]: 0.953 µM (active)
- IC50 [6]: 3.06 µM (active)

Compound: c1ccc(-n2ncc3c(NCc4cccs4)ncnc32)cc1
- AC50 [7]: 55.5 µM (active)

Compound: CCN1CCN(S(=O)(=O)c2ccc(Cl)c(C(=O)N(CCc3ccccc3)Cc3ccccc3)c2)CC1
- EC50 [8]: > 92.5 µM (inactive)
- EC50 [9]: > 92.5 µM (inactive)
- EC50 [10]: > 92.5 µM (inactive)

Compound: Fc1cccc(-c2cc3nc(-c4ccccc4)cc(N4CCC5(CC4)OCCO5)n3n2)c1
- AC50 [11]: 1.35 µM (active)
- IC50 [12]: > 100 µM (active)

Compound: COc1ccc2cc(CCNC(=O)c3cccs3)c(O)nc2c1
- AC50 [7]: 51 µM (active)

Compound: CC(=O)OC1CCC2(C)C(COc3ccc4ccc(=O)oc4c3)C(C)(O)CCC2C1(C)C (stereo unspecified)
- AC50 [11]: 87.2 µM (active)
- AC50 [13]: 18.1 µM (active)

Compound: C#CC(C)(CC)NC(=O)c1cc2cccc(CC=C)c2oc1=O (stereo unspecified)
- AC50 [14]: 23.8 µM (active)

Compound: Cc1cccnc1NC(=O)c1cccc(S(=O)(=O)N2CCCc3ccccc32)c1
- AC50 [14]: 23.6 µM (active)

Compound: O=C(CC1(O)C(=O)N(C/C=C/c2ccccc2)c2ccccc21)c1ccccn1 (stereo unspecified)
- AC50 [11]: 59.1 µM (active)
- AC50 [13]: 26.3 µM (active)

Compound: O=C(CSc1nccn1Cc1ccccc1)NC1CCCC1
- AC50 [14]: 25.5 µM (active)

Compound: COc1ccc(C(CNC(=O)c2ccc3c(c2)CCC3)N(C)C)cc1 (stereo unspecified)
- EC50 [8]: 0.503 µM (active)
- EC50 [9]: 7.36 µM (active)
- EC50 [10]: > 92.5 µM (inactive)
- EC50 [15]: 0.0053 µM (active)

Compound: COc1cc(/C=C2/SC(=S)N(c3cccc(C(=O)O)c3)C2=O)cc(Cl)c1OCc1cccc(C(=O)O)c1
- IC50 [1]: 14.6 µM (active)
- IC50 [2]: 12.2 µM (active)
- IC50 [3]: 20.4 µM (active)
- IC50 [4]: 3.81 µM (active)
- IC50 [5]: 2.81 µM (active)
- IC50 [6]: 62.8 µM (active)

Compound: CCOc1ccc(/C=N/NC(=O)c2ccc(-c3csc(Nc4ccc(C)cc4)n3)cc2)cc1OCC
- IC50 [1]: 95.3 µM (active)
- IC50 [2]: > 100 µM (inactive)
- IC50 [3]: > 100 µM (inactive)
- IC50 [4]: 60.8 µM (active)
- IC50 [5]: > 100 µM (inactive)
- IC50 [6]: > 100 µM (inactive)
